Assay: xn = mol fraction of the nth substance listed

CCCCC(C)=O + CC(=O)CC(C)C
298.15 K, 101 kPa
Settings | viscosity [mPa·s]
x2 = 0.1164 | 0.581
x2 = 0.2196 | 0.575
x2 = 0.3357 | 0.571
x2 = 0.4413 | 0.566
x2 = 0.5503 | 0.562
x2 = 0.6632 | 0.558
x2 = 0.7765 | 0.553
x2 = 0.8841 | 0.548

COCC(C)O (stereo unspecified) + CC(=O)CC(C)C
298.15 K, 101 kPa
Settings | viscosity [mPa·s]
x2 = 0.1057 | 1.373
x2 = 0.2037 | 1.167
x2 = 0.3075 | 1.006
x2 = 0.4185 | 0.875
x2 = 0.5295 | 0.774
x2 = 0.6413 | 0.696
x2 = 0.7612 | 0.63
x2 = 0.8745 | 0.582

O=[N+]([O-])c1ccccc1 + CC(=O)O
viscosity [mPa·s], 101 kPa
Settings | x2 = 0.165 | x2 = 0.3078 | x2 = 0.4326 | x2 = 0.5425 | x2 = 0.6402 | x2 = 0.7274 | x2 = 0.8059 | x2 = 0.8768 | x2 = 0.9412
298.15 K | 1.731 | 1.662 | 1.602 | 1.546 | 1.488 | 1.428 | 1.365 | 1.3 | 1.232
308.15 K | 1.48 | 1.453 | 1.407 | 1.35 | 1.288 | 1.224 | 1.159 | 1.095 | 1.033
318.15 K | 1.314 | 1.365 | 1.353 | 1.306 | 1.24 | 1.164 | 1.085 | 1.006 | 0.9289

ClC(Cl)=C(Cl)Cl + CC(=O)c1ccccc1
298.15 K, 101 kPa
Settings | viscosity [mPa·s]
x2 = 0.1255 | 0.893
x2 = 0.3215 | 1.023
x2 = 0.5397 | 1.198
x2 = 0.7329 | 1.382
x2 = 0.9142 | 1.555

CC(C)CCl + CC(C)(C)O
viscosity [mPa·s], 101.33 kPa
Settings | x1 = 0.0982 | x1 = 0.2011 | x1 = 0.3047 | x1 = 0.4029 | x1 = 0.5031 | x1 = 0.6023 | x1 = 0.6979 | x1 = 0.7997 | x1 = 0.8948
298.15 K | 2.345 | 1.477 | 1.065 | 0.8424 | 0.6988 | 0.604 | 0.5388 | 0.4863 | 0.3827
313.15 K | 1.359 | 0.9661 | 0.7571 | 0.6303 | 0.5423 | 0.481 | 0.437 | 0.4053 | 0.3751

ClC(Cl)=C(Cl)Cl + CC(C)(C)O
303.15 K, 101.33 kPa
Settings | viscosity [mPa·s]
x1 = 0.1027 | 2.16
x1 = 0.2143 | 1.557
x1 = 0.3299 | 1.249
x1 = 0.4102 | 1.122
x1 = 0.5188 | 1.006
x1 = 0.6036 | 0.946
x1 = 0.7072 | 0.895
x1 = 0.8124 | 0.852
x1 = 0.9075 | 0.821

O=[N+]([O-])c1ccccc1 + CC(C)(C)O
viscosity [mPa·s], 101.33 kPa
Settings | x1 = 0.0627 | x1 = 0.1307 | x1 = 0.2059 | x1 = 0.2864 | x1 = 0.3758 | x1 = 0.4746 | x1 = 0.5843 | x1 = 0.7067 | x1 = 0.8442
298.15 K | 3.205 | 2.576 | 2.256 | 2.001 | 1.838 | 1.711 | 1.655 | 1.697 | 1.681
303.15 K | 2.375 | 2.152 | 1.896 | 1.732 | 1.622 | 1.506 | 1.468 | 1.477 | 1.538

C1CCC2CCCCC2C1 (stereo unspecified) + CC(C)CC(C)(C)C
viscosity [mPa·s], 101 kPa
Settings | x2 = 0.1031 | x2 = 0.1995 | x2 = 0.299 | x2 = 0.4001 | x2 = 0.5004 | x2 = 0.6002 | x2 = 0.6994 | x2 = 0.8002 | x2 = 0.899
293.15 K | 2.019 | 1.701 | 1.435 | 1.203 | 1.026 | 0.876 | 0.758 | 0.656 | 0.571
298.15 K | 1.842 | 1.561 | 1.323 | 1.114 | 0.955 | 0.818 | 0.711 | 0.62 | 0.54
303.15 K | 1.688 | 1.436 | 1.223 | 1.034 | 0.89 | 0.765 | 0.667 | 0.581 | 0.509
308.15 K | 1.553 | 1.327 | 1.135 | 0.963 | 0.831 | 0.717 | 0.627 | 0.547 | 0.482
313.15 K | 1.434 | 1.23 | 1.056 | 0.905 | 0.778 | 0.673 | 0.59 | 0.516 | 0.456
318.15 K | 1.328 | 1.142 | 0.983 | 0.838 | 0.727 | 0.63 | 0.552 | 0.483 | 0.425
323.15 K | 1.234 | 1.066 | 0.921 | 0.788 | 0.686 | 0.597 | 0.525 | 0.461 | 0.408

CCCCCCCCCCCCCC + CC(C)CC(C)(C)C
298.15 K, 101 kPa
Settings | viscosity [mPa·s]
x2 = 0.1084 | 1.813
x2 = 0.1551 | 1.724
x2 = 0.1801 | 1.702
x2 = 0.2807 | 1.483
x2 = 0.4042 | 1.265
x2 = 0.5162 | 1.086
x2 = 0.6304 | 0.9193
x2 = 0.7095 | 0.8085
x2 = 0.7868 | 0.7168
x2 = 0.8111 | 0.6841
x2 = 0.8616 | 0.6216
x2 = 0.9166 | 0.5603
x2 = 0.9516 | 0.5263
x2 = 0.9768 | 0.5023

ClC(Cl)=C(Cl)Cl + CC(C)CCO
303.15 K, 101.33 kPa
Settings | viscosity [mPa·s]
x1 = 0.0975 | 2.635
x1 = 0.2467 | 2.045
x1 = 0.3283 | 1.773
x1 = 0.4163 | 1.524
x1 = 0.5256 | 1.293
x1 = 0.6182 | 1.148
x1 = 0.7334 | 1.013
x1 = 0.8214 | 0.934
x1 = 0.9161 | 0.864

CC(C)CCl + CC(C)CO
viscosity [mPa·s], 101.33 kPa
Settings | x1 = 0.1154 | x1 = 0.2046 | x1 = 0.3086 | x1 = 0.4017 | x1 = 0.4943 | x1 = 0.6102 | x1 = 0.7057 | x1 = 0.8002 | x1 = 0.8978
298.15 K | 2.364 | 1.728 | 1.287 | 1.019 | 0.8243 | 0.6718 | 0.5775 | 0.5104 | 0.4593
313.15 K | 1.56 | 1.191 | 0.9221 | 0.7582 | 0.6325 | 0.5324 | 0.4679 | 0.4215 | 0.3866

ClC(Cl)=C(Cl)Cl + CC(C)CO
303.15 K, 101.33 kPa
Settings | viscosity [mPa·s]
x1 = 0.1124 | 2.28
x1 = 0.2157 | 1.855
x1 = 0.3156 | 1.552
x1 = 0.4057 | 1.353
x1 = 0.5099 | 1.182
x1 = 0.5996 | 1.077
x1 = 0.7145 | 0.977
x1 = 0.8032 | 0.918
x1 = 0.908 | 0.857

From the CheMixHub viscosity set
